Test results published in ChEMBL document CHEMBL4673265, “The food-grade antimicrobial xanthorrhizol targets the enoyl-ACP reductase (FabI) in Escherichia coli” (Bioorg Med Chem Lett, 2020).
Positions count from the first letter of the chain named. In brackets after ≈: the same amount, converted by molar mass. Activity calls are given as the source filed them. The rule behind the calls is not given here.

Experiments:
Escherichia coli [1] = assay: Antimicrobial activity against Escherichia coli W3110 imp4213 assessed as absence of growth; assay type: functional
Escherichia coli [2] = assay: Antimicrobial activity against Escherichia coli W3110 imp4213 expressing pCA24N mutant assessed as absence of growth; assay type: functional
Escherichia coli [3] = assay: Antimicrobial activity against Escherichia coli W3110 imp4213 expressing fabI392 pCA24N fabI mutant assessed as absence of growth; assay type: functional
[4] = target: T1, Enoyl-[acyl-carrier-protein] reductase [NADH] FabI (Escherichia coli K-12) (UniProt P0AEK4); assay: Binding affinity to wild type Escherichia coli FabI assessed as binding free energy
T1 sequence (whole entry): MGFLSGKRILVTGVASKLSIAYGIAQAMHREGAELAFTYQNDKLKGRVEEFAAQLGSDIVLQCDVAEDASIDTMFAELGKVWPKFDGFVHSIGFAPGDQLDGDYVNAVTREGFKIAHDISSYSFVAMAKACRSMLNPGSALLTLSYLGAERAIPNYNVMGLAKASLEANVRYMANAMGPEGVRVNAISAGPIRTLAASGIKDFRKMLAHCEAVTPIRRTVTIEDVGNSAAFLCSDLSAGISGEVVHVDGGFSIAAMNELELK

Escherichia coli [5] = assay: Ratio of MIC for antimicrobial activity against Escherichia coli W3110 imp4213 expressing fabI392 pCA24N fabI F203L mutant assessed as absence of growth to MIC for antimicrobial activity against Escherichia coli W3110 imp4213 expressing fabI392 mutant assessed as absence of growth; assay type: functional
[6] = target: Enoyl-[acyl-carrier-protein] reductase [NADH] FabI (Escherichia coli K-12, UniProt P0AEK4, G93V); assay: Inhibition of Escherichia coli FabI G93V mutant
Escherichia coli [7] = assay: Antimicrobial activity against Escherichia coli W3110 imp4213 expressing fabI G93V mutant assessed as absence of growth; assay type: functional
Escherichia coli [8] = assay: Antibacterial activity against Escherichia coli BW25113 assessed as effect on growth rate per hour at 8 uM incubated for 24 hrs by microplate reader; assay type: functional
Escherichia coli [9] = assay: Ratio of MIC for antimicrobial activity against Escherichia coli W3110 imp4213 expressing fabI392 pCA24N fabI F204V mutant assessed as absence of growth to MIC for antimicrobial activity against Escherichia coli W3110 imp4213 expressing fabI392 mutant assessed as absence of growth; assay type: functional
[10] = test system: T2, Enoyl-[acyl-carrier-protein] reductase [NADH] FabI (Escherichia coli K-12), P0AEK4 [Y156V]; assay: Binding affinity to Escherichia coli FabI Y156V mutant assessed as binding free energy
T2 sequence (whole entry): T1 sequence (whole entry) with Y156V

[11] = target: T1, Enoyl-[acyl-carrier-protein] reductase [NADH] FabI (Escherichia coli K-12); assay: Binding affinity to wild type Escherichia coli FabI assessed as change in entropy
Escherichia coli [12] = assay: Antimicrobial activity against Escherichia coli W3110 imp4213 expressing fabI392 pCA24N fabI F203L mutant assessed as absence of growth; assay type: functional
Escherichia coli [13] = assay: Antimicrobial activity against wild type Escherichia coli W3110 assessed as absence of growth; assay type: functional
[14] = target: Enoyl-[acyl-carrier-protein] reductase [NADH] FabI (Escherichia coli K-12, UniProt P0AEK4, F203L); assay: Inhibition of Escherichia coli FabI F203L mutant
Escherichia coli [15] = assay: Antimicrobial activity against Escherichia coli W3110 imp4213 expressing pCA24N-fab F203L mutant assessed as absence of growth; assay type: functional
[16] = target: T3, Enoyl-acyl-carrier protein reductase (Plasmodium falciparum) (UniProt Q965D5); assay: Binding affinity to Plasmodium falciparum FabI assessed as fluorescence quenching by fluorescence spectral analysis
T3 sequence (whole entry): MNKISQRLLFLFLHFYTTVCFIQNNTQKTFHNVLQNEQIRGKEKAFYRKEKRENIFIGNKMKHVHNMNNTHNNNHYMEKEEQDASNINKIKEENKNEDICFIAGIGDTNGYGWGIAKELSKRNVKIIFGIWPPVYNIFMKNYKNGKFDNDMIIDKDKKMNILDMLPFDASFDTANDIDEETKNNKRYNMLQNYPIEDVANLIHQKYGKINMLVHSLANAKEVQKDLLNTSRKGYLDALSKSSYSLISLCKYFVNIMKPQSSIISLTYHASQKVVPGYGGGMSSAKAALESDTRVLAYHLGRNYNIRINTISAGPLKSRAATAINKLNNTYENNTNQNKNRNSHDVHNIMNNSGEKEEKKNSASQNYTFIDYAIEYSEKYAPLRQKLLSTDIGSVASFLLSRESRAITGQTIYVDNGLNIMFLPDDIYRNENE

[17] = Drug uptake in Escherichia coli W3110 at 8 ug/ml incubated for 2 hrs (Rvb (wash control) = 1.88 pM); assay type: ADME; settings: dose 8 µg/ml
[18] = Drug uptake in Escherichia coli W3110 imp4213 mutant at 8 ug/ml incubated for 2 hrs (Rvb (wash control) = 1.48 +/- 1.31 pM); assay type: ADME; settings: dose 8 µg/ml
[19] = test system: T4, Enoyl-[acyl-carrier-protein] reductase [NADH] FabI (Escherichia coli K-12), P0AEK4 [G93V]; assay: Binding affinity to Escherichia coli FabI G93V mutant assessed as binding free energy
T4 sequence (whole entry): T1 sequence (whole entry) with G93V

Escherichia coli [20] = assay: Antimicrobial activity against Escherichia coli W3110 imp4213 expressing fabI392 pCA24N fabI Y156V mutant assessed as absence of growth; assay type: functional
[21] = target: Enoyl-[acyl-carrier-protein] reductase [NADH] FabI (Escherichia coli K-12, UniProt P0AEK4, F203V); assay: Inhibition of Escherichia coli FabI F203V mutant
Escherichia coli [22] = assay: Antimicrobial activity against Escherichia coli W3110 imp4213 expressing pCA24N-fab F204V mutant assessed as absence of growth; assay type: functional
[23] = target: T5, Enoyl-[acyl-carrier-protein] reductase [NADH] FabI (Escherichia coli K-12, UniProt P0AEK4); assay: Inhibition of Wild type Escherichia coli FabI
T5 sequence (P0AEK4 whole entry): T1 sequence (whole entry)

[24] = target: Enoyl-[acyl-carrier-protein] reductase [NADH] FabI (Escherichia coli K-12, UniProt P0AEK4, Y156V); assay: Inhibition of Escherichia coli FabI Y156V mutant
[25] = test system: T2, Enoyl-[acyl-carrier-protein] reductase [NADH] FabI (Escherichia coli K-12), P0AEK4 [Y156V]; assay: Binding affinity to Escherichia coli FabI Y156V mutant assessed as change in entropy
Escherichia coli [26] = assay: Antimicrobial activity against Escherichia coli W3110 imp4213 expressing pCA24N-fabI mutant assessed as absence of growth; assay type: functional
Plasmodium falciparum = assay: Binding affinity to Plasmodium falciparum FabI Y156V mutant assessed as fluorescence quenching by fluorescence spectral analysis
Escherichia coli [27] = assay: Antimicrobial activity against Escherichia coli W3110 imp4213 expressing fabI392 pCA24N fabI F204V mutant assessed as absence of growth; assay type: functional
Escherichia coli [28] = assay: Antimicrobial activity against Escherichia coli W3110 imp4213 expressing fabI392 pCA24N mutant assessed as absence of growth; assay type: functional
Escherichia coli [29] = assay: Antimicrobial activity against triclosan resistance-induced Escherichia coli W3110 assessed as absence of growth; assay type: functional
Escherichia coli [30] = assay: Antimicrobial activity against Escherichia coli W3110 imp4213 expressing fabI392 mutant assessed as absence of growth; assay type: functional
[31] = test system: T4, Enoyl-[acyl-carrier-protein] reductase [NADH] FabI (Escherichia coli K-12), P0AEK4 [G93V]; assay: Binding affinity to Escherichia coli FabI G93V mutant assessed as change in entropy
Escherichia coli [32] = assay: Antimicrobial activity against Escherichia coli W3110 imp4213 expressing pCA24N-fab/ Y156V mutant assessed as absence of growth; assay type: functional

Sequence of Enoyl-[acyl-carrier-protein] reductase [NADH] FabI (Escherichia coli K-12, UniProt P0AEK4, F203V) (P0AEK4 2-262 F203V limits assumed): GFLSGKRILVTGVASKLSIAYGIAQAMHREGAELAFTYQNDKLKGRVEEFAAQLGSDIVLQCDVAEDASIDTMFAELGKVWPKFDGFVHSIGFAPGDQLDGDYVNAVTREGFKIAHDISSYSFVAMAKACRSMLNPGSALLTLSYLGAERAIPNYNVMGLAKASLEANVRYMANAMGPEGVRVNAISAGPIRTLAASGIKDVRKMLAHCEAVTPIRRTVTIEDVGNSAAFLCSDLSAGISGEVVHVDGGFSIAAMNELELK
Sequence of Enoyl-[acyl-carrier-protein] reductase [NADH] FabI (Escherichia coli K-12, UniProt P0AEK4, F203L) (P0AEK4 2-262 F203L limits assumed): as the sequence (P0AEK4 2-262 F203V limits assumed) above, with V202L counted along it
Sequence of Enoyl-[acyl-carrier-protein] reductase [NADH] FabI (Escherichia coli K-12, UniProt P0AEK4, Y156V) (P0AEK4 2-262 Y156V limits assumed): as the sequence (P0AEK4 2-262 F203V limits assumed) above, with Y155V, V202F counted along it

CC(C)=CCC[C@@H](C)c1ccc(C)c(O)c1 [XANTHORRIZOL]
MIC (Escherichia coli [1]): 16 µg/mL (≈ 73.3 µM) | MIC (Escherichia coli [2]): 16 µg/mL (≈ 73.3 µM) | MIC (Escherichia coli [3]): 8 µg/mL (≈ 36.6 µM) | deltaG [4]: -15 kcal/mol | Ratio (Escherichia coli [5]): 2 | IC50 [6]: 19.7 µM | MIC (Escherichia coli [7]): 16 µg/mL (≈ 73.3 µM) | Activity (Escherichia coli [8]): 0.354 | Ratio (Escherichia coli [9]): 2 | deltaG [10]: -10.6 kcal/mol | -TdeltaS [11]: -32.2 kcal/mol | MIC (Escherichia coli [12]): 16 µg/mL (≈ 73.3 µM) | MIC (Escherichia coli [13]): 0.05 µg/mL (≈ 0.229 µM) | IC50 [14]: 75.7 µM | MIC (Escherichia coli [15]): 256 µg/mL (≈ 1170 µM) | Activity [16]: inactive | Drug uptake [17]: 0.23 pM | Drug uptake [18]: 76.65 pM | deltaG [19]: -15.1 kcal/mol | MIC (Escherichia coli [20]): 16 µg/mL (≈ 73.3 µM) | IC50 [21]: 57.3 µM | MIC (Escherichia coli [22]): 256 µg/mL (≈ 1170 µM) | IC50 [23]: 17.1 µM | IC50 [24]: 37.7 µM | -TdeltaS [25]: -33.2 kcal/mol | MIC (Escherichia coli [26]): 64 µg/mL (≈ 293 µM) | Activity (Plasmodium falciparum): inactive | MIC (Escherichia coli [27]): 16 µg/mL (≈ 73.3 µM) | MIC (Escherichia coli [28]): 2 µg/mL (≈ 9.16 µM) | MIC (Escherichia coli [29]): 0.125 µg/mL (≈ 0.573 µM) | MIC (Escherichia coli [30]): 2 µg/mL (≈ 9.16 µM) | -TdeltaS [31]: -38.7 kcal/mol | MIC (Escherichia coli [32]): 128 µg/mL (≈ 586 µM)
